The record followed here is patent US6635475B1, “Bacillus subtilis extracytoplasmic function σ factor” (Cornell Research Foundation, Inc., priority 1999, dated 2003).

Where a SMILES comes first, the peptide text is derived from it. Bridges are numbered along the chain shown (N, C = ends). [ ]: non-standard residue; d: D form. The star is where a group is joined. Ileψ(thiazoline)Cys = CC[C@H](C)[C@H](N)C1=N[C@H](C(=O)*)CS1; dOrn = NCCC[C@@H](N)C(=O)O

The subject of this assay is sigW mutant. Description: sigW mutant tested for increased sensitivity to chemical insults (zones of inhibition). It counts as cell-based, Bacillus subtilis. The following applies: sigW mutant strain tested for increased sensitivity to a variety of chemical insults. An excerpt:
Identification of members of the σ^W regulon allows prediction of the phenotypes likely to be associated with a sigW mutation. A sigW mutant strain is not grossly defective in any of the well-characterized processes associated with post-exponential phase, including sporulation, competence, and protein secretion. It has been previously reported that sigW transcription is not induced by a temperature shift from 37 to 50 degrees C. (Huang et al., 1998) and the same is true for the four tested members of the σ^W regulon (ydbS, yeaA, yxjI, ysdB). Since several members of the σ^W regulon encode enzymes with a predicted detoxification function (FIG. 3), a sigW mutant was tested for increased sensitivity to a variety of chemical insults.
For the compound `O=C(N[C@H](CO)[C@H](O)c1ccc([N+](=O)[O-])cc1)C(Cl)Cl` [chloramphenicol], the “differences in the zones of inhibition” value is “no differences”. The entry for `[Mn+2]` [Mn^2+] is “no differences”.

As for `C[n+]1ccc(-c2cc[n+](C)cc2)cc1` [methyl viologen], the “differences in the zones of inhibition” value is on record as “no differences”. Consider polymyxins, for which the “differences in the zones of inhibition” value is recorded as “no differences”. On to lysozyme, for which the “differences in the zones of inhibition” value is reported as “no differences”. Under `CN[C@@H]1[C@H](O)[C@H](NC)[C@H]2O[C@@]3(O)C(=O)C[C@@H](C)O[C@H]3O[C@@H]2[C@H]1O` [spectinomycin] stands “no differences”. With gentamicin sulfate, the “differences in the zones of inhibition” value is recorded as “no differences”. In the case of `CC1(C)S[C@@H]2[C@H](NC(=O)[C@H](N)c3ccccc3)C(=O)N2[C@H]1C(=O)O` [ampicillin], the “differences in the zones of inhibition” value is “no differences”. Under `[Fe+3]` [Fe^3+] stands “no differences”.

Regarding `[Cl-].[Na+]` [NaCl], the “differences in the zones of inhibition” value is reported as “no differences”. Under `CCCCCCCCCCCCOS(=O)(=O)[O-].[Na+]` [sodium dodecyl sulfate] stands “no differences”; under `O=C(O)CN(CCN(CC(=O)O)CC(=O)O)CC(=O)O` [EDTA], “no differences”. As for nisin, the “differences in the zones of inhibition” value is reported as “no differences”. With `OCCS` [2-mercaptoethanol], the “differences in the zones of inhibition” value is reported as “no differences”.

Take `OO` [hydrogen peroxide]: the “differences in the zones of inhibition” value is “no differences”. Regarding `CC[C@H](C)[C@H](N)C1=N[C@H](C(=O)N[C@@H](CC(C)C)C(=O)N[C@H](CCC(=O)O)C(=O)N[C@H](C(=O)N[C@H]2CCCCNC(=O)[C@H](CC(N)=O)NC(=O)[C@@H](CC(=O)O)NC(=O)[C@H](Cc3cnc[nH]3)NC(=O)[C@@H](Cc3ccccc3)NC(=O)[C@H]([C@@H](C)CC)NC(=O)[C@@H](CCCN)NC2=O)[C@@H](C)CC)CS1` [bacitracin] ({Ileψ(thiazoline)Cys}-L[dE]IK[dOrn]I[dF]H[dD]N; lactam 4-C), the “differences in the zones of inhibition” value is on record as “no differences”. The entry for `Cl` [HCI] is “no differences”; for `O[C@H](CS)[C@H](O)CS` (racemic) [dithiothreitol] it is “no differences”; for neomycin it is “no differences”. Under `[Na+].[OH-]` [NAOH] stands “no differences”.
